# Data: patent publication US9267129B2, “Compositions and methods for conferring herbicide resistance” (BEN-GURION UNIVERSITY OF THE NEGEV RESEARCH AND DEVELOPMENT …, priority 2011, dated 2016)
# How the values were obtained:
# [1] = tested on: E. coli BUM1 carrying the mutant gene (pEp-mut); experiment: Growth on M9 plates with SMM, bacteria carrying the mutant gene; format: cell-based, Escherichia coli; conditions: 50 μM SMM, 48 hrs, 37° C.
# Protocol: (§1) This strain also requires proline and thiamin, regardless of AHAS expression. Transformation of BUM1 cells was achieved using a standard heat shock protocol. BUM1 cells were grown in LB or in M9 minimal medium (7 mg/ml Na2HPO4; 3 mg/ml KH2PO4; 0.5 mg/ml NaCl; 1 mg/ml NH4Cl; 0.12 mg/ml MgSO4; 0.35 mg/ml thiamin HCl; 2 mg/ml glucose) supplemented with 200 μg/ml proline. Where appropriate, the M9 medium was supplemented with the BCAAs valine, leucine, and isoleucine (150 μg/ml of each) or with 50 μM SMM. BUM1 transformants were propagated and kept on LB medium supplemented with 100 μg/ml Ampicillin. For functional expression assays, the cells were washed and plated on M9 agar plates and incubated for 48 hrs at 37° C. […]
# (§2) The expression vector pEp-empty, an empty plasmid that retains the native ilvEp promoter and ATG start codon, was created by amplification of pAH29 plasmid with the pAH29-empty primer set, and included BamHI and SalI restriction sites for future fusion with the algal genes. Three forms of PiAHAS genes were used for this experiment: PiAHAS full open reading frame (ORF), truncated PiAHAS without the estimated chloroplast targeting peptide (from Serine91), and PimAHAS containing the point mutation (W605S). […] The plates were incubated for 48 hrs (FIG. 3) and bacterial growth was determined. […]
# [2] = tested on: E. coli BUM1 transformed with pAH29 (bacterial AHASII); experiment: Growth on M9 plates with SMM, bacteria transformed with pAH29; format: cell-based, Escherichia coli; conditions: 50 μM SMM, 48 hrs, 37° C.
# Protocol: as §1, §2
compound,measurement,setting,value
"COC(=O)c1ccccc1S(=O)(=O)NC(=O)Nc1nc(C)cc(C)n1 [SMM, sulfometuron methyl]",bacterial growth in presence of SMM,[1],not affected
same,bacterial growth in presence of SMM,[2],able to grow slowly
